Measurements reported in patent US20230313181A1, “HISTIDINE-LYSINE POLYMERS AND METHODS FOR DELIVERING MRNA USING THE SAME” (UNIVERSITY OF MARYLAND, BALTIMORE, priority 2019, published 2023).
Bridges are numbered along the chain shown (N, C = ends). Roman numbers before positions name the chains, in order. Where no end group is shown, it is not given here.

Legend:
[1] = Cell viability assay (trypan blue exclusion); format: cell-based; conditions: human, MDA-MB-231 cells, HK polymer 4 μg or polyplex (4 μg HK; 1 μg mRNA), then 19 h DMEM/10% FBS
Experimental: Cell Viability Assay. MDA-MB-231 cells were seeded at 5.0×10^4/well in a 24-tissue culture plate and incubated overnight in DMEM supplemented with 10% FBS serum. The media was then changed to Opti-MEM and the cells were treated with either the HK polymer (4 μg) or the HK polyplex (4 μg HK; 1 μg mRNA) for 5 h. After the media was changed to DMEM/10% FBS for 19 h, the cell viability was measured using the trypan blue cell exclusion assay (Trypan Blue solution, 0.4%, Sigma-Aldrich, St. Louis, MO).
After the medium was changed to Opti-MEM in cell cultures of the MDA-MB-231 cells used in the experiment described above, either the HK polymer (4 μg) or the HK polyplex (4 μg HK; 1 μg mRNA) was added dropwise to the cells and incubated for 5 h. The media was then changed to DMEM/10% FBS for 19 h and cell viability was determined using the trypan cell exclusion assay.

[2] = Particle size, polydispersity index (PDI) and zeta potential of polyplexes (Zetasizer); format: physicochemical
Experimental: Particle size, polydispersity index (PDI), and zeta potential. The size, PDI, and zeta potential were determined with the Zetasizer (Malvern, Westborough, Mass.) and analyzed with software provided by the instrument manufacturer (Zetasizer software, version 6.2). Using dynamic light scattering at a 90° angle, the size of the particles were reported as the Z-average diameter from the intensity-weighted size distribution. Prior to the measurements, the samples were equilibrated to 25° C. for 2 min. Each measurement had at least ten sub-runs under the automatic mode of the software. The particle size, PDI, and zeta potential data point represent the mean±SD of three measurements. After mixing HK peptides (4 μg) and mRNA (1 μg) in 100 μl of defined media (Opti-MEM, water, or DMEM/8% FBS) for 30 min, 100 μl of additional defined media was added to the polyplex solution (total volume 200 μl) to measure the size and PDI. To determine the zeta potential, 800 μl more of the media was added (total volume 1000 μl), mixed gently, and then added to the disposable zeta cell.
Because different stabilities were observed between the H3K4b and H3K(+H)4b polyplexes, whether the sizes of these polyplexes varied based on the media in which they were prepared was investigated. […] H3K(+H)4b and H3K4b peptides (4 μg) in complex with mRNA (1 μg) were mixed with either Opti-MEM, water, or DMEM/8% FBS […]. After 1 h, the size, PDI, and zeta potential were measured.

[3] = test system: mRNA; experiment: Heparin displacement assays (gel electrophoresis and Sybr Gold dye intercalation); format: physicochemical; conditions: HK:mRNA 4:1 wt/wt
Experimental: FIG. 4. Heparin Displacement Assays. After HK polyplexes were formed (wt:wt; HK:mRNA; 4 μg:1 μg), different concentrations of heparin […] were incubated with these for 30 min. A. Gel Retardation. The HK polyplexes were loaded on the agarose gel (1%), and electrophoresis was carried out and stained with Sybr Gold. B. Fluorescent dye intercalation. After the HK polyplexes were formed and incubated with several concentrations of heparin, the Sybr Gold nucleic acid dye was incubated with the HK polyplexes for 5 mins. Fluorescence was then measured by a microplate fluorimeter (λex=497 nm, λem=520 nm) (SynergyMx, BioTek). *, P<0.05; ***, P<0.001; H3K4b or H2K vs. H3K(+H)4b.
Heparin Displacement Assays. Heparin displacement assays of HK polyplexes were done with the dye intercalation assay and with gel electrophoresis. A fluorescent assay assessed polyplexes of HK polymer and mRNA (4:1 wt/wt ratio; polymer:mRNA) formed in RNAse/DNAase free water (Corning, Manassas, VA). HK polyplexes were prepared as described previously, followed by the addition of diluted Syber Gold. For detection, working dilutions of the polyplexes (1/5 of volume), water (3/5) and Sybr Gold dye (1/5, 0.2×) were incubated for 5 minutes, and fluorescence was measured by a fluorimeter (Ex=497 nm, Em=520 nm) (SynergyMx, BioTek, Winooski, VT). The control sample was prepared with the same amount of mRNA, water, and Sybr Gold dye. For the heparin displacement, instead of water, heparin salt (Sigma-Aldrich, St. Louis, MO) solutions at different concentrations (0.5, 1, 1.5, 2, 3 μg/μl) were used, and the HK polyplexes were incubated at 37° C. for 30 min before addition of Sybr Gold.
Displacement of mRNA from HK polyplexes with heparin was also done with gel electrophoresis. After HK polyplexes were formed, different concentrations of heparin (0.5, 1.0, 1.5, 2.0, 3.0 μg/μl; volume 20 μl) were incubated with these at 37° C. for 30 min. The polyplexes were then loaded on the agarose gel (1%; 10× BlueJuice Gel loading buffer), and electrophoresis was carried out and stained with SG as described above. […]

[4] = Acid-base titration of HK polymer solutions; format: physicochemical; conditions: pH titration curves, 5 mg/ml
Experimental: FIG. 2. Titration of different HK peptide solutions. Solutions of polymers (5 mg/ml) (H2K4b, H3K4b, H3K(+H)4b, and H4K4b) were adjusted to pH 3 (initial volume—1 ml) and then […] aliquots of 0.05 N NaOH were stepwise added and the pH measured.
Acid-Base Titration. After polymer solutions (e.g. containing one or more of H2K4b, H3K4b, H3K(+H)4b, and H4K4b) were adjusted to pH 3.0 (5 mg/mil; initial volume—1 mil), aliquots (5 μl) of NaOH (0.05 N) were stepwise added with the pH measured (FiveEasy™ meter; InLab Solids Pro-ISM pH electrode, Mettler Toledo, Columbus, OH). Titration was stopped at about pH 9.0.

[5] = test system: MDA-MB-231 cells; experiment: In vitro mRNA transfection with HK polyplexes (luciferase mRNA, luciferase activity); format: cell-based; conditions: mRNA 1 μg, 24 h
Experimental: FIG. 1. Comparison of H3K(+H)4b and H3K4b peptides as carriers of mRNA. To form the HK polyplexes, the mRNA (1 μg) was mixed with 3 different ratios of the HK ([…]) polymer for 30 minutes. The HK polyplexes were then added to the cells for 24 h before the luciferase activity was measured. ****, H3K(+H)4b vs H3K4b, P<0.0001.
In vitro mRNA Transfection. Several HK polymers were examined for their ability to carry a luciferase-expressing mRNA (CleanCap Firefly Luciferase mRNA, Trilink Biotechnologies, Inc, San Diego, CA) into MDA-MB-231 cells (America Type Tissue Culture, Manassas, VA). In brief, 3×10^4 cells were plated into a 24-well plate containing 500 μl of DMEM and 10% fetal bovine serum (ThermoFisher Scientific, Waltham, MA). After 24 h, when the cells were 60 to 80% confluent, the media in each well was changed to Opti-MEM (ThermoFisher Scientific). To prepare HK polyplexes, mRNA (1 μg) in 50 μl of Opti-MEM was briefly mixed well with one of the HK polymers (4 to 12 μg) and maintained at room temperature for 30 min. This polyplex was then added dropwise to the cells. After four h, the Opti-MEM media was removed and replaced with 0.5 ml of DMEM/10% serum (0.5 ml). Twenty-four hours later, the cells were lysed, and the luciferase activity (Promega Corporation, Madison, WI) was measured.
To obtain the data in Table 4, luciferase-expressing mRNA (1 μg) in 50 μl of Opti-MEM was briefly mixed with one of the HK polymers (4, 8, or 12 μg) and maintained at room temperature for 30 min. The resulting polyplexes were added dropwise to the MDA-NM-231 cells and after four h, the Opti-MEM media was removed and replaced with DMEM/10% serum. Twenty-four hours later, the cells were lysed, and the luciferase activity was measured

[6] = prior studies [34, 35, 45]; cited from earlier work
[7] = test system: cytokines; conditions: in vitro and in vivo; prior study [45]; cited from earlier work
[8] = polyplex HK 4 μg:mRNA 1 μg in DMEM/8% FBS
[9] = polyplex HK 4 μg:mRNA 1 μg in Opti-MEM
[10] = polyplex HK 4 μg:mRNA 1 μg in Water

Substance: I: KHHHKHHHKHHHKHHHKKKK-NH2 / II: KHHHKHHHKHHHKHHHK / III: KHHHKHHHKHHHKHHHK / IV: KHHHKHHHKHHHKHHHK (amide I:18-IV:C, I:19-III:C, I:20-II:C) [H3K4b]
- viability at 5 h [1]: 95.6%
- PDI [2, 8]: 0.421
- Size [2, 8]: 578 ± 80.5 nm
- Zeta Potential [2, 8]: −12.1 ± 2.22 mV
- PDI [2, 9]: 0.466
- Size [2, 9]: 2030.7 ± 117.3 nm
- Zeta Potential [2, 9]: −4.20 ± 2.78 mV
- PDI [2, 10]: 0.171
- Size [2, 10]: 199.9 ± 0.8 nm
- Zeta Potential [2, 10]: 16.47 ± 0.74 mV
- binding/release of mRNA and polyplex stability on exposure to heparin (in words) [3]: released by the H3K4b polymer more readily than the H3K(+H)4b polymer
- buffering profile / buffering capacity (in words) [4]: minimal differences in their buffering profile
- RLU/μg-Protein (luciferase activity) ([5]; ratio mRNA:polymer 1:4 (wt:wt)): 156.8 ± 41.8 RLU/μg-Protein
- RLU/μg-Protein (luciferase activity) ([5]; ratio mRNA:polymer 1:8 (wt:wt)): 62.1 ± 13.2 RLU/μg-Protein
- RLU/μg-Protein (luciferase activity) ([5]; ratio mRNA:polymer 1:12 (wt:wt)): 18.1 ± 4.0 RLU/μg-Protein
- carrier of siRNA (in words) [6]: effective carriers of siRNA
- cytokine induction by siRNA polyplex (in words) [7]: induced cytokines to a significantly greater degree
